Data taken from patent US4822408A, “Alkyl-, alkenyl- and alkynylnitroguanidines as cytokinin plant growth regulants” (American Cyanamid Company, priority 1987, dated 1989).
In brackets after ≈: the same amount, converted by molar mass. Several values for one entry are separate records, joined by “and”; a condition that tells them apart may be missing. Equal values may be shown once. Read-outs that look alike come from different tables or passages of the source.

Tests used:
[1] = tested on: cucumber cotyledon; test: tissue or blood; format: cell-based, Cucumis sativa var. National Pickling; settings: 0.06-64 ppm typically tested, inactive if more than 200 ppm; for EC50: Cucumis sativus, read-out: ED50 (the source's name)
[2] = tested on: cucumber cotyledons; test: Antagonism of cytokinin activity by a cytokinin antagonist in the cucumber cotyledon bioassay; format: cell-based, Cucumis sativa var. National Pickling
Method: Cucumber seeds (Cucumis sativa var. National Pickling) are germinated in vermiculite in the dark at 30° C. for 6 days. The cotyledons are subsequently excised under a dim green safelight and placed abaxial side up in […] petri dishes at 8 pairs of cotyledons per dish. The dishes also contain three layers of Whatman No. 1 filter paper and 10 mls of test solution. The dishes with cotyledons are returned to the dark at 30° C. for about 18 hours. Thereafter the dishes are placed under fluorescent light at about 12 μw per square cm for 3 hours at 25° C. The cotyledons are then blotted and placed in 5 ml of dimethylformamide overnight and at 4° C. to extract the chlorophyll. The leachate is then analyzed for absorbance at 663 nanometers by spectrophotometry (Moran and Porath Plant Physical (1980) 65: 478-9) to determine relative chlorophyll biosynthesis. The cotyledons are then measured for area by using a sensitive leaf area meter. These two parameters, chlorophyll synthesis and enhanced expansion of the cotyledons are used as a measure of relative cytokinin activity. The test solutions typically contain between 0.06 and 64 ppm of test compound, up to 1.3% acetone, and 40 mM KCl. The amount of compound is varied in order to determine the dose at which there is achieved a response which is 50% of the maximum possible enhancement, as judged by a standard. This is termed the 50% effective dose or ED50 (Table).
The above compound is a known (Hecht et al.) Biochemistry 10:4224 (1971) antagonist of the activity of cytokinins such as the natural cytokinin 6-(3-methyl-2-butenylamino)purine (2iP). For example 0.003 μM 2iP is required for maximum growth of tobacco callus tissue cultures. The antagonist decreases this effect in the range of 0.1 μM (detectable) to 0.73 μM (lethal). (Ref. Skoog et al. Phytochemistry 12: 25-37 (1973)).
Test solutions are prepared to contain a test compound in both the presence and absence of the antagonist.

[3] = tested on: Soybean callus; test: Soybean callus culture bioassay (definitive cytokinin activity); format: cell-based, Glycine max CV. Acme; settings: for Callus Dry Weight / Callus Fresh Weight: 6 weeks, 3 flasks per treatment; for Callus Dry Weight: no supplement 22.2 ± 9; for Callus Fresh Weight: initial fresh weight 240 mg, no supplement 283 ± 99
Method: Soybean callus cultures (from Glycine max CV. Acme) are subdivided into smaller callus pieces each weighing about 80 mg each. These pieces are placed on 50 ml of agar containing nutrient medium from which the usual growth supporting cytokinin hormone has been deleted. Without cytokinin hormone, the callus tissue will not divide and grow. Any compound which can provide for growth of the callus under these circumstances is by definition a cytokinin. The test is thus definitive and diagnostic. Different flasks of the nutrient medium are therefore supplemented with either the known cytokinin N^6 -benzyladenine as a standard or with the indicated test compound. After 6 weeks of axenic culture, the callus pieces are weighed, then oven dried and weighed again, such that the amount of callus growth is determined as a function of increased tissue weight.

[4] = tested on: habituated callus tissue (Nicotiana tabacum A21-10H); test: Stimulation of callus growth from a habituated line of Nicotiana tabacum; format: cell-based; set-up: key to Chlorophyll production: -: None; +: Slight; ++: Moderate; +++: Very Good; settings: for Callus Growth Fresh weight: 0.02 ppm naphthalene acetic acid, untreated 0.6; for Chlorophyll production: untreated -
Method: A specialized callus tissue (Nicotiana tabacum A21-10H) which was known to be unique in that it had been selected to no longer require cytokinins for callus to grow (this condition is known as "habituated") as long as 2 ppm naphthalene acetic acid was present in the medium, is transferred to flasks of basal media containing mineral salts based on the formulation of Murashige and Skoog, Physiologia plantarum 15: 473-497 (1962), and containing 100 mg per liter of i-inositol, 0.4 mg per liter of thiamine.HCl, and 3% sucrose (Huang, L. C. and T. Murashige 1976, TCA manual 3(1): 539-548) as well as 0.9% to 0.95% Difco® agar. The pH of the medium is adjusted to pH 5.8.
Test solutions are added from 5000 ppm stock solutions in ethanol and the stimulation of callus growth determined by the increase in fresh weight per treatment (per flask) in grams and by chlorophyll production rated as indicated in the rating system below. (No shoot regeneration can occur in this line due to the length of time (>4 years) it has been maintained in culture.)

[5] = tested on: tobacco callus tissue cultures; settings: cited from earlier work

`N=C(NCCCC(N)C(=O)O)N[N+](=O)[O-]` (centres unmarked) gave an EC50 [1] of 31 mg/L (≈ 141 µM).
`C/C(Cl)=C/CNC(=N)N[N+](=O)[O-]` showed an EC50 [1] of 1 mg/L (≈ 5.19 µM).
With `CC(CO)CCNC(=N)N[N+](=O)[O-]` (centres unmarked) the EC50 [1] was 14 mg/L (≈ 73.6 µM).
With `C/C(=C\CNC(=N)N[N+](=O)[O-])CO` the EC50 [1] was 2.5 mg/L (≈ 13.3 µM).
With `CC(C)=CCNC(=N)N[N+](=O)[O-]` [1-(3-methyl-2-butenyl)-3-nitroguanidine] the “Relative Chlorophyll” value ([2]; Experiment B, 20 ppm, antagonist none, H2O alone 443) was 1200, the “Relative Chlorophyll” value ([2]; Experiment B, 20 ppm, with antagonist 10 ppm, H2O alone 443) was 388 and the “effect on callus growth at 10^-4 M” value ([3]; 10^-4 M) was “extremely active”. For the same compound, the “Callus Dry Weight” value ([3]; 10^-4 M) was 410 ± 87 mg per 3 pieces, the “Callus Fresh Weight” value ([3]; 10^-4 M) was 5324 ± 1148 mg per 3 pieces and the EC50 [1] was 3.8 mg/L (≈ 22.1 µM). The “Callus Growth Fresh weight” value ([4]; Molar concentration 10^-4) was 2.9 grams per flask and the Chlorophyll production ([4]; Molar concentration 10^-4) was “++”.
For `CC(C)=CCNc1ncnc2nc[nH]c12` [2iP, 6-(3-methyl-2-butenylamino)purine], the “concentration required for maximum growth of tobacco callus tissue cultures” value [5] is given as 0.003 µM.
In the case of `Cc1n[nH]c2c(NCCC(C)C)ncnc12` [7-(Isopentylamine)-3-methyl-1H-Pyrazolo[4,3-d]pyrimidine], the “antagonist concentration decreasing the effect of 2iP, detectable” value ([5]; detectable, against 2iP) is listed as 0.1 µM, the “antagonist concentration decreasing the effect of 2iP, lethal” value ([5]; lethal, against 2iP) is listed as 0.73 µM and the “Relative Chlorophyll” value [2] is listed as 415 and 406. For the same compound, the “effect of antagonist on response of cucumber cotyledons to N^6-benzyladenine” value [2] was “prevents the response of cucumber cotyledons” and the “prevention of enhancement of chlorophyll synthesis” value [2] was “able to fully prevent the enhancement of chlorophyll synthesis”.
In the case of `CC(C)CCNC(=N)N[N+](=O)[O-]` [(CH3)2 CHCH2 CH2], the EC50 [1] is reported as 64 mg/L (≈ 367 µM).
With `CC(C)NC(=N)N[N+](=O)[O-]` [(CH3)2 CH] the ED50 [1] was 45 ppm.
`CC(C)(C)NC(=N)N[N+](=O)[O-]` [(CH3)3 C] showed an ED50 [1] of 31 ppm.
`N=C(NCCC=C(Cl)Cl)N[N+](=O)[O-]` [(Cl)2 CCHCH2 CH 2] showed an EC50 [1] of 11 mg/L (≈ 48.4 µM).
Work on `CCCCNC(=N)N[N+](=O)[O-]` [-n-C4 H9] yielded an EC50 [1] of 31 mg/L (≈ 194 µM).
Work on `CCCCCNC(=N)N[N+](=O)[O-]` [-n-C5 H11] yielded an EC50 [1] of 31 mg/L (≈ 178 µM).
`CCC(C)(C)NC(=N)N[N+](=O)[O-]` [C2 H5 C(CH3)2] showed an EC50 [1] of 22 mg/L (≈ 126 µM).
Work on `CCOCCNC(=N)N[N+](=O)[O-]` [C2 H5 OCH2 CH2] yielded an EC50 [1] of 113 mg/L (≈ 641 µM).
For `C=CC(C)(C)NC(=N)N[N+](=O)[O-]` [CH2CHC(CH3)2], the ED50 [1] was 157 ppm.
In the case of `C=CCNC(=N)N[N+](=O)[O-]` [CH2CHCH2], the ED50 [1] is reported as 22 ppm.
`COCC(C)NC(=N)N[N+](=O)[O-]` (centres unmarked) [CH3 OCH2 CH(CH3)] showed an EC50 [1] of 113 mg/L (≈ 641 µM).
For `N=C(NCCCCO)N[N+](=O)[O-]` [HOCH2 CH2 CH2 CH2], the EC50 [1] was 113 mg/L (≈ 641 µM).
In the case of `c1coc(CNc2ncnc3[nH]cnc23)c1` [Kinetin], the “Callus Growth Fresh weight” value ([4]; Molar concentration 10^-4) is reported as 1.4 grams per flask, the Chlorophyll production ([4]; Molar concentration 10^-4) is reported as “-” and the “Callus Growth Fresh weight” value ([4]; Molar concentration 10^-5) is reported as 0.8 grams per flask. For the same compound, the Chlorophyll production ([4]; Molar concentration 10^-5) was “-”, the “Callus Growth Fresh weight” value ([4]; Molar concentration 10^-6) was 0.3 grams per flask and the Chlorophyll production ([4]; Molar concentration 10^-6) was “-”. The “Callus Growth Fresh weight” value ([4]; Molar concentration 10^-7) was 0.2 grams per flask, the Chlorophyll production ([4]; Molar concentration 10^-7) was “-” and the “efficacy in the habituated callus system” value ([4]; reduced auxin level (0.02 ppm naphthalene acetic acid)) was “ineffective”.
With `c1ccc(CNc2ncnc3nc[nH]c23)cc1` [N^6 benzyladenine, N^6 -benzyladenine] the “Relative Chlorophyll” value ([2]; Experiment A, 0.1 ppm, antagonist none, H2O alone 370) was 853, the “Relative Chlorophyll” value ([2]; Experiment A, 0.1 ppm, with antagonist 10 ppm, H2O alone 370) was 460 and the “optimum concentration of the standard” value [3] was 10^-6 M. For the same compound, the “effect on callus growth at 10^-4 M” value ([3]; 10^-4 M) was “supraoptimal effect whereby the beneficial effect was negated”, the “Callus Dry Weight” value ([3]; 10^-4 M) was 28 ± 5 mg per 3 pieces and the “Callus Fresh Weight” value ([3]; 10^-4 M) was 434 ± 193 mg per 3 pieces. The “Callus Dry Weight” value ([3]; 10^-6 M) was 351 ± 63 mg per 3 pieces and the “Callus Fresh Weight” value ([3]; 10^-6 M) was 5826 ± 1110 mg per 3 pieces.
